Data as given in patent publication US6048890A, “Phenylamidinothiophene derivatives and anti-inflammatory agent containing the same” (Kaken Pharmaceutical Co., Ltd., priority 1995, dated 2000).
“And” between values parts separate entries of the source, which are not always exact repeats. Equal entries are not always repeated. Where two headings read alike, the source gives them in different places.

What was measured:
rat adjuvant arthritis = assay: Action on rat adjuvant arthritis (paw swelling inhibition); type: in vivo, male Lewis rats; conditions: mean of 4 rats (standard error); for Swelling inhibition (%), Primary inflammation (inoculated paw): measured 3 days after adjuvant inoculation; for Swelling inhibition (%), Secondary inflammation (uninoculated paw): measured 17 days after adjuvant inoculation
Protocol: Seven-week old male Lewis rats (4 rats in one group) were injected under the plantar skin of the right hind paw with 0.6 mg/0.1 ml of a suspension of human tubercle bacillus, killed Mycobacterium tuberculosis H37 RA in liquid paraffin, thereby inducing adjuvant arthritis. The volume of the adjuvant-inoculated paw (primary inflammation) was measured 3 days after the inoculation of adjuvant and the volume of the adjuvant-uninoculated paw (secondary inflammation) 17 days after the inoculation of adjuvant. The swelling rate of each paw was calculated with respect to the volume of the paw before the inoculation of adjuvant. Ten mg of the instant compound was suspended in 10 ml of a 0.5% by weight aqueous solution of carboxymethyl cellulose and the oral administration of the obtained suspension began on day of adjuvant inoculating and continued for 17 days in a dose of 10 mg/kg one time per day.
The swelling rate and inhibition rate were calculated according to the following formulae: [formula]
Each value is an average value for 4 rats in one group and the value in parentheses is standard error.

[1] = target: T1, cyclooxygenase of sheep seminal vesicle gland (Ovis aries, UniProt P05979); assay: Action on activity of cyclooxygenase of sheep seminal vesicle gland; type: biochemical
T1 construct: purchased CAYMAN CO., LTD; host or cells: sheep seminal vesicle gland
T1 sequence (P05979 25-600): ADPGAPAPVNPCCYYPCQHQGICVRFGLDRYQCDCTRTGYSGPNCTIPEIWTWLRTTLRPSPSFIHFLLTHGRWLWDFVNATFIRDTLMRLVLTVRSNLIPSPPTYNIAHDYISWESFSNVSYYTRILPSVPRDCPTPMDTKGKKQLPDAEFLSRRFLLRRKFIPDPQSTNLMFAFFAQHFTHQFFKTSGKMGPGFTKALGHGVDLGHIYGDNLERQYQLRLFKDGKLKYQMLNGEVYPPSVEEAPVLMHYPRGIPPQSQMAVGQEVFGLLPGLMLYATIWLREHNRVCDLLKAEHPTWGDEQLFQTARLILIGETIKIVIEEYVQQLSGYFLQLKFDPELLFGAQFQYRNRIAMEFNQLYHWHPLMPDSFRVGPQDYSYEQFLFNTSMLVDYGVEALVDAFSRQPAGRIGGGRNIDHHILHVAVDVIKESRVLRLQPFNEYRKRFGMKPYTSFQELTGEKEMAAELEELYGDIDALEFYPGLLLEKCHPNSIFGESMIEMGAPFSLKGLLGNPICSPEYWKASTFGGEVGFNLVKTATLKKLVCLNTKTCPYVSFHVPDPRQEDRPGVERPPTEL
Protocol: Two hundred and fifty μl of an enzyme solution containing each test compound [5 mM triptophan, 200 nM hematin, 0.04% by weight Tween 20, 10 units of cyclooxygenase of sheep seminal vesicle gland (made by CAYMAN CO., LTD.), 2 μM [1-^14 C] arachidonic acid, 0.1 M Tris-hydrochloric acid buffer solution (pH: 8.0)], underwent a reaction at 25° C. for 6 minutes. The reaction was terminated by addition of 0.5 ml of a 0.2 M citric acid buffer solution (pH 3.0). [1-^14 C]arachidonic acid was extracted with ethyl acetate and separated by a thin layer chromatography. The radioactivity of the resulting arachidonic acid fraction was determined with a scintillation counter and the inhibition was calculated.
The inhibition value was calculated according to the following formula: [formula]

stress ulcer in mice = type: in vivo; conditions: for Ulcer index: 15 minutes before 7 h constraint under water immersion, average of sum of ulcer lengths
Protocol: Six-week old male ddy […] (10 rats in one group) were completely fasted overnight and then loaded with constraint under water immersion for 7 hours. The rats were observed under a stereoscopic microscope to examine production of gastric ulcer. Sum (mm) of lengths of ulcers for each animal was taken as ulcer index. Ten mg, 30 mg or 100 mg of the instant compound was mixed with 0.15 ml of Tween 80 and suspended into a 0.5% by weight aqueous solution of gum arabic to give a total 10 ml of a suspension. The suspension was orally administered 15 minutes before loading of the constraint under water immersion. Indomethacin was used as a comparative drug.
The test results are shown in Table 3 in terms of an average value of ulcer indexes.

[2] = comparative drug, 1 mg/kg, 1 mg/kg
[3] = comparative drug, 1 mg/kg, listed as indomethacin, 1 mg/kg
[4] = 10 mg/kg oral once daily for 17 days

Compound	Swelling inhibition (%), Primary inflammation (inoculated paw) (rat adjuvant arthritis; [4])	Swelling inhibition (%), Secondary inflammation (uninoculated paw) (rat adjuvant arthritis; [4])	other results
COc1ccc2c(c1)c(CC(=O)O)c(C)n2C(=O)c1ccc(Cl)cc1 [Indomethacin, indomethacin, reference compound]	–	–	Swelling inhibition (%), Primary inflammation (inoculated paw) (rat adjuvant arthritis; [2]): 28.3 (4.10) %; Swelling inhibition (%), Primary inflammation (inoculated paw) (rat adjuvant arthritis; [3]): 28.8%; Swelling inhibition (%), Secondary inflammation (uninoculated paw) (rat adjuvant arthritis; [2]): 43.6 (9.42) %; Swelling inhibition (%), Secondary inflammation (uninoculated paw) (rat adjuvant arthritis; [3]): 43.6%; Inhibition of cyclooxygenase activity (in words) ([1]; 10^-6 M): completely inhibited the activity; inhibition at 0.1 µM ([1]; 10^-7 M, pH 8.0, 25° C., 6 minutes, average of two experiments): 66.2%; Concentrations at which the activity of cyclooxygenase was inhibited ([1]; dependent on dosage): ≥ 10^-8 M
CS(=O)(=O)c1ccc(-c2cc(C(=N)Nc3ccc(Cl)cc3)sc2-c2ccc(F)cc2)cc1 [Example 4]	32.7 (7.40) %	57.4 (8.54) %	–
CS(=O)(=O)c1ccc(-c2cc(C(=N)Nc3ccc(F)c(Cl)c3)sc2-c2ccc(F)cc2)cc1 [Example 18]	27.9 (3.09) %	48.9 (9.69) %	–
CS(=O)(=O)c1ccc(-c2cc(C(=N)Nc3ccc(Br)cc3)sc2-c2ccc(F)cc2)cc1 [Example 7]	36.1 (6.36) %	48.8 (3.20) %	–
CS(=O)(=O)c1ccc(-c2cc(C(=N)Nc3ccccc3)sc2-c2ccc(F)cc2)cc1 [Example 2]	22.6 (5.24) %	28.4 (2.55) %	–
COc1ccc(NC(=N)c2cc(-c3ccc(S(C)(=O)=O)cc3)c(-c3ccc(F)cc3)s2)cc1 [Example 11]	35.0 (10.1) %	37.1 (4.42) %	–
CS(=O)(=O)c1ccc(-c2cc(C(=N)Nc3ccccc3Cl)sc2-c2ccc(F)cc2)cc1 [Example 3]	22.1 (4.94) %	32.2 (10.8) %	–
CS(=O)(=O)c1ccc(-c2cc(C(=N)Nc3cccc(Cl)c3)sc2-c2ccc(F)cc2)cc1 [Example 1, 5-[N^1-(3-chlorophenyl)amidino]-2-(4-fluorophenyl)-3-(4-methylsulfonylphenyl)thiophene]	31.5% and 31.5 (0.91) %	48.9% and 48.9 (3.58) %	Ulcer index (stress ulcer in mice; 10 mg/kg oral): 6.5 mm; Ulcer index (stress ulcer in mice; 30 mg/kg oral): 10.8 mm; Ulcer index (stress ulcer in mice; 100 mg/kg oral): 9.6 mm; Ulcer index / ulcer-exacerbating action (in words) (stress ulcer in mice; compared with solvent-given group, up to 100 mg/kg (Example 1), 1 and 3 mg/kg (indomethacin)): no evident difference in ulcer index was observed even in the group given 100 mg/kg; inhibition at 100 µM ([1]; 10^-4 M, pH 8.0, 25° C., 6 minutes, average of two experiments): -2.2%; inhibition at 10 µM ([1]; 10^-5 M, pH 8.0, 25° C., 6 minutes, average of two experiments): 1.3%; inhibition at 1 µM ([1]; 10^-6 M, pH 8.0, 25° C., 6 minutes, average of two experiments): 3.4%; Inhibition of cyclooxygenase activity (in words) ([1]; even in 10^-4 M added group): did not inhibit the activity of cyclooxygenase
CS(=O)(=O)c1ccc(-c2cc(C(=N)Nc3ccc(F)cc3F)sc2-c2ccc(F)cc2)cc1 [Example 12]	18.2 (2.73) %	24.9 (10.2) %	–
CS(=O)(=O)c1ccc(-c2cc(C(=N)Nc3ccc(Cl)c(Cl)c3)sc2-c2ccc(F)cc2)cc1 [Example 17]	27.4 (7.02) %	44.1 (3.83) %	–
CS(=O)(=O)c1ccc(-c2cc(C(=N)Nc3ccc(Cl)cc3Cl)sc2-c2ccc(F)cc2)cc1 [Example 13]	16.7 (3.25) %	24.2 (5.05) %	–
CS(=O)(=O)c1ccc(-c2cc(C(=N)Nc3ccc(F)cc3)sc2-c2ccc(F)cc2)cc1 [Example 6]	26.3 (4.37) %	57.2 (5.34) %	–
CS(=O)(=O)c1ccc(-c2cc(C(=N)Nc3cccc(F)c3)sc2-c2ccc(F)cc2)cc1 [Example 5]	23.5 (4.75) %	34.7 (4.26) %	–
